# Data reported in patent US10112907B2, “Substituted indazoles for treating tendon and/or ligament injuries” (NOVARTIS AG, priority 2016, dated 2018).
# Read-outs that look alike come from different tables or passages of the source.
# Assays:
# [1] = system: Scleraxis (Scx) gene transcriptional activation in TT-D6 Scx-luciferase (ScxL) cell line; experiment: SCX-LUC in vitro assay (Scx-luciferase reporter); type: cell-based; conditions: Mus musculus
# [2] = system: collagen type I (Col1a2) gene expression in rat tail tendon fascicles; experiment: Ex vivo assay, Col1a2 mRNA in tendon fascicles (qPCR); type: cell-based, Sprague Dawley rat
# [3] = system: Tenomodulin (Tnmd) gene expression in rat tail tendon fascicles; experiment: Ex vivo assay, Tnmd mRNA in tendon fascicles (qPCR); type: cell-based, Sprague Dawley rat
# [4] = system: Scleraxis (Scx) gene expression in rat tail tendon fascicles; experiment: Ex vivo assay, Scx mRNA in tendon fascicles (qPCR); type: cell-based, Sprague Dawley rat
# [5] = 96 h, Table 3, four days, read-out: Scx-Luc (EC50 μM)
# [6] = 96 h, Table 3, four days, read-out: Ex vivo Col1a2 (EC50 μM)
# [7] = 96 h, Table 3, four days, read-out: Ex vivo Tnmd (EC50 μM)
# [8] = 96 h, Table 3, four days, read-out: Ex vivo Scx (EC50 μM)
# [9] = Table 1, read-out: Ex vivo Col1a2 (EC50 uM)
# [10] = Table 1, read-out: Ex vivo Tnmd (EC50 uM)
# [11] = Table 1, read-out: Ex vivo SCX (EC50 uM)
# [12] = Table 1, read-out: Scx-Luc (EC50 uM)
structure (smiles),measurement,setting,value
"Cc1cc(S(=O)(=O)N2CC[C@@H](O)C2)ccc1-c1ccc2[nH]nc(N)c2c1C [Example 4, (R)-1-((4-(3-amino-4-methyl-1H-indazol-5-yl)-3-methylphenyl)sulfonyl)pyrrolidin-3-ol]",EC50,[1]; [5],0.511 µM
same,EC50,[2]; [6],1.55 µM
same,EC50,[3]; [7],0.513 µM
same,EC50,[4]; [8],1.64 µM
C[C@@H](O)c1nc2cnc3[nH]ccc3c2n1[C@@H]1CCCOC1 [reference compound],EC50,[1]; read-out: Scx-Luc (EC50 uM),1.34 µM
same,EC50,[2]; [9],4.66 µM
same,EC50,[3]; [10],6.11 µM
same,EC50,[4]; [11],0.08 µM
"Cc1c(-c2ccc(S(=O)(=O)N[C@H]3C[C@](O)(C(F)(F)F)C3)cc2Cl)ccc2[nH]nc(N)c12 [Example 55, 4-(3-amino-4-methyl-1H-indazol-5-yl)-3-chloro-N-((1s,3s)-3-hydroxy-3-(trifluoromethyl)cyclobutyl)benzenesulfonamide]",EC50,[1]; [5],0.228 µM
same,EC50,[2]; [6],3.5 µM
same,EC50,[3]; [7],5.5 µM
same,EC50,[4]; [8],3.14 µM
"Cc1cc(S(=O)(=O)N2CC(F)(F)C[C@H]2CO)ccc1-c1ccc2[nH]nc(N)c2c1Cl [Example 54, (S)-(1-((4-(3-amino-4-chloro-1H-indazol-5-yl)-3-methylphenyl)sulfonyl)-4,4-difluoropyrrolidin-2-yl)methanol]",EC50,[1]; [5],0.242 µM
same,EC50,[2]; [6],4.42 µM
same,EC50,[3]; [7],0.706 µM
same,EC50,[4]; [8],3.8 µM
COc1ccc(-c2nc3c(NCC4CCNCC4)c(Cl)cnc3[nH]2)c(F)c1 [reference compound],EC50,[1]; [12],0.51 µM
same,EC50,[2]; [9],1.15 µM
same,EC50,[3]; [10],0.08 µM
same,EC50,[4]; [11],0.47 µM
"Cc1cc(S(=O)(=O)N2CC[C@@H](O)C2)ccc1-c1ccc2[nH]nc(N)c2c1Cl [Example 7, (R)-1-((4-(3-amino-4-chloro-1H-indazol-5-yl)-3-methylphenyl)sulfonyl)pyrrolidin-3-ol]",EC50,[1]; [5],2.02 µM
same,EC50,[2]; [6],3.31 µM
same,EC50,[3]; [7],0.463 µM
same,EC50,[4]; [8],5.35 µM
O=C(Nc1nc2cccc(-c3ccc(CN4CCS(=O)(=O)CC4)cc3)n2n1)C1CC1 [reference compound],EC50,[1]; read-out: Scx-Luc (EC50 uM),4.32 µM
same,EC50,[2]; read-out: Ex vivo Col1a2 (EC50 uM),5.01 µM
same,EC50,[3]; read-out: Ex vivo Tnmd (EC50 uM),6.93 µM
same,EC50,[4]; read-out: Ex vivo SCX (EC50 uM),5.34 µM
"Cc1cc(S(=O)(=O)N(C)C2CC(F)(F)C2)ccc1-c1ccc2[nH]nc(N)c2c1C [Example 63, 4-(3-amino-4-methyl-1H-indazol-5-yl)-N-(3,3-difluorocyclobutyl)-N,3-dimethylbenzenesulfonamide]",EC50,[1]; [5],0.222 µM
same,EC50,[2]; [6],1.79 µM
same,EC50,[3]; [7],5.41 µM
same,EC50,[4]; [8],1.38 µM
"CCC1(O)CC(NS(=O)(=O)c2ccc(-c3ccc4[nH]nc(N)c4c3C)c(C)c2)C1 (centres unmarked) [Example 49, 4-(3-amino-4-methyl-1H-indazol-5-yl)-N-(3-ethyl-3-hydroxycyclobutyl)-3-methylbenzenesulfonamide]",EC50,[1]; [5],0.852 µM
same,EC50,[2]; [6],2.23 µM
same,EC50,[3]; [7],2.78 µM
same,EC50,[4]; [8],3.04 µM
"Cc1cc(S(=O)(=O)NC2CC(O)(C3CC3)C2)ccc1-c1ccc2[nH]nc(N)c2c1C (centres unmarked) [Example 50, 4-(3-amino-4-methyl-1H-indazol-5-yl)-N-(3-cyclopropyl-3-hydroxycyclobutyl)-3-methylbenzenesulfonamide]",EC50,[1]; [5],1.29 µM
same,EC50,[2]; [6],2.01 µM
same,EC50,[3]; [7],7.38 µM
same,EC50,[4]; [8],3.26 µM
O=C(Nc1nc2cccc(-c3ccc(OCc4ccc[n+]([O-])c4)cc3)n2n1)C1CC1 [reference compound],EC50,[1]; [12],0.02 µM
same,EC50,[2]; [9],0.4 µM
same,EC50,[3]; [10],5.99 µM
same,EC50,[4]; [11],0.36 µM
"Cc1c(-c2ccc(S(=O)(=O)N[C@H]3C[C@@H](O)C3)cc2Cl)ccc2[nH]nc(N)c12 [Example 34, 4-(3-amino-4-methyl-1H-indazol-5-yl)-3-chloro-N-((1s,3s)-3-hydroxycyclobutyl)benzenesulfonamide]",EC50,[1]; [5],0.614 µM
same,EC50,[2]; [6],5.92 µM
same,EC50,[3]; [7],0.078 µM
same,EC50,[4]; [8],1.54 µM
"Cc1cc(S(=O)(=O)N[C@@H]2COCC[C@H]2O)ccc1-c1ccc2[nH]nc(N)c2c1C [Example 45, 4-(3-amino-4-methyl-1H-indazol-5-yl)-N-((3R,4R)-4-hydroxytetrahydro-2H-pyran-3-yl)-3-methylbenzenesulfonamide]",EC50,[1]; [5],1.25 µM
same,EC50,[2]; [6],2.41 µM
same,EC50,[3]; [7],2.85 µM
same,EC50,[4]; [8],4.44 µM
CC1(C)CN(C(=O)c2ccc(-c3cccc4nc(NC(=O)C5CC5)nn34)cc2)C1 [reference compound],EC50,[1]; read-out: Scx-Luc (EC50 uM),1.42 µM
same,EC50,[2]; [9],3.62 µM
same,EC50,[3]; [10],3.69 µM
same,EC50,[4]; [11],3.56 µM
"Cc1cc(S(=O)(=O)N2C[C@H](O)[C@@H](F)C2)ccc1-c1ccc2[nH]nc(N)c2c1C [(3S,4S)-1-((4-(3-amino-4-methyl-1H-indazol-5-yl)-3-methylphenyl)sulfonyl)-4-fluoropyrrolidin-3-ol]",EC50,"[1]; assays described above (Scx-Luc and ex vivo), read-out: EC50 in the assays described above",> 10 µM
"Cc1cc(S(=O)(=O)N2CC(F)=C[C@H]2CO)ccc1-c1ccc2[nH]nc(N)c2c1C [Example 33, (S)-(1-((4-(3-amino-4-methyl-1H-indazol-5-yl)-3-methylphenyl)sulfonyl)-4-fluoro-2,5-dihydro-1H-pyrrol-2-yl)methanol]",EC50,[1]; [5],0.17 µM
"Cc1cc(S(=O)(=O)N2C[C@@H](F)[C@@H](F)C2)ccc1-c1ccc2[nH]nc(N)c2c1C [Example 82, Meso-5-(4-(((3R,4S)-3,4-difluoropyrrolidin-1-yl)sulfonyl)-2-methylphenyl)-4-methyl-1H-indazol-3-amine]",EC50,[1]; [5],0.524 µM
"Cc1cc(S(=O)(=O)N2CCC[C@H]2CO)ccc1-c1ccc2[nH]nc(N)c2c1Cl [Example 28, (S)-(1-((4-(3-amino-4-chloro-1H-indazol-5-yl)-3-methylphenyl)sulfonyl)pyrrolidin-2-yl)methanol]",EC50,[1]; [5],0.436 µM
"Cc1cc(S(=O)(=O)N2CC(C)(O)C2)ccc1-c1ccc2[nH]nc(N)c2c1C [Example 13, 1-((4-(3-amino-4-methyl-1H-indazol-5-yl)-3-methylphenyl)sulfonyl)-3-methylazetidin-3-ol]",EC50,[1]; [5],2.33 µM
"Cc1cc(S(=O)(=O)N2CC[C@H]2CO)ccc1-c1ccc2[nH]nc(N)c2c1C [Example 10, (S)-(1-((4-(3-amino-4-methyl-1H-indazol-5-yl)-3-methylphenyl)sulfonyl)azetidin-2-yl)methanol]",EC50,[1]; [5],1.79 µM
"Cc1c(-c2ccc(S(=O)(=O)N[C@@H]3CCC[C@@H]3O)cc2Cl)ccc2[nH]nc(N)c12 [Example 39, 4-(3-amino-4-methyl-1H-indazol-5-yl)-3-chloro-N-((1R,2S)-2-hydroxycyclopentyl)benzenesulfonamide]",EC50,[1]; [5],0.362 µM
"Cc1cc(S(=O)(=O)N2CCC(F)(F)C2)ccc1-c1ccc2[nH]nc(N)c2c1C [Example 77, 5-(4-((3,3-difluoropyrrolidin-1-yl)sulfonyl)-2-methylphenyl)-4-methyl-1H-indazol-3-amine]",EC50,[1]; [5],0.692 µM
"Cc1c(-c2ccc(S(=O)(=O)N3CC[C@@H](O)C3)cc2Cl)ccc2[nH]nc(N)c12 [Example 2, (R)-1-((4-(3-amino-4-methyl-1H-indazol-5-yl)-3-chlorophenyl)sulfonyl)pyrrolidin-3-ol]",EC50,[1]; [5],0.908 µM
"Nc1n[nH]c2ccc(-c3ccc(S(=O)(=O)N4CC(F)(F)C[C@H]4CO)cc3Cl)c(F)c12 [Example 46, (S)-(1-((4-(3-amino-4-fluoro-1H-indazol-5-yl)-3-chlorophenyl)sulfonyl)-4,4-difluoropyrrolidin-2-yl)methanol]",EC50,[1]; [5],1.05 µM
"Cc1cc(S(=O)(=O)N2CC(F)(F)C[C@@H]2CO)ccc1-c1ccc2[nH]nc(N)c2c1C [Example 88, (R)-(1-((4-(3-amino-4-methyl-1H-indazol-5-yl)-3-methylphenyl)sulfonyl)-4,4-difluoropyrrolidin-2-yl)methanol]",EC50,[1]; [5],0.22 µM
"Cc1c(-c2c(F)cc(S(=O)(=O)N3CC(F)(F)C[C@H]3CO)cc2F)ccc2[nH]nc(N)c12 [Example 89, (S)-(1-((4-(3-amino-4-methyl-1H-indazol-5-yl)-3,5-difluorophenyl)sulfonyl)-4,4-difluoropyrrolidin-2-yl)methanol]",EC50,[1]; [5],0.554 µM
"Cc1cc(S(=O)(=O)N2CCC(C#N)CC2)ccc1-c1ccc2[nH]nc(N)c2c1C [Example 23, 1-((4-(3-amino-4-methyl-1H-indazol-5-yl)-3-methylphenyl)sulfonyl)piperidine-4-carbonitrile]",EC50,[1]; [5],1.85 µM
"Nc1n[nH]c2ccc(-c3ccc(S(=O)(=O)N[C@H]4C[C@](O)(C(F)(F)F)C4)cc3Cl)c(Cl)c12 [Example 64, 4-(3-amino-4-chloro-1H-indazol-5-yl)-3-chloro-N-((1s,3s)-3-hydroxy-3-(trifluoromethyl)cyclobutyl)benzenesulfonamide]",EC50,[1]; [5],0.474 µM
"Cc1cc(S(=O)(=O)N2CCC[C@@H]2CO)ccc1-c1ccc2[nH]nc(N)c2c1C [Example 20, (R)-(1-((4-(3-amino-4-methyl-1H-indazol-5-yl)-3-methylphenyl)sulfonyl)pyrrolidin-2-yl)methanol]",EC50,[1]; [5],0.723 µM
"Cc1cc(S(=O)(=O)N2CCC(F)(F)CC2)ccc1-c1ccc2[nH]nc(N)c2c1C [Example 80, 5-(4-((4,4-difluoropiperidin-1-yl)sulfonyl)-2-methylphenyl)-4-methyl-1H-indazol-3-amine]",EC50,[1]; [5],2.53 µM
"Cc1cc(S(=O)(=O)N[C@@H]2CC[C@H](O)C2)ccc1-c1ccc2[nH]nc(N)c2c1C [Example 35, 4-(3-amino-4-methyl-1H-indazol-5-yl)-N-((1R,3S)-3-hydroxycyclopentyl)-3-methylbenzenesulfonamide]",EC50,[1]; [5],1.52 µM
"Cc1c(-c2ccc(S(=O)(=O)N3CC(C)(C)C3)cc2Cl)ccc2[nH]nc(N)c12 [Example 1, 5-(2-chloro-4-((3,3-dimethylazetidin-1-yl)sulfonyl)phenyl)-4-methyl-1H-indazol-3-amine]",EC50,[1]; [5],0.773 µM
